Experimental data as given in PMC11940194, “Synthesis, Antiproliferative Activity, and ADME Profiling of Novel Racemic and Optically Pure Aryl-Substituted Purines and Purine Bioisosteres” (Biomolecules, 2025).

Legend:
[1] = system: normal skin fibroblasts (HFF-1); experiment: Cytotoxicity MTT assay, normal skin fibroblasts; assay type: cell-based, human; conditions: Homo sapiens, HFF-1, 72 h, 72 h incubation, mean ± SD
Summary of the method: (§1)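 MTT read-out after 72 h exposure to compounds (0.01–100 µM, fivefold/tenfold dilutions in growth medium). Seeding 3000 cells/well for carcinoma lines, 5000 for HFF-1. IC50 by linear regression; 5-FU reference.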

[2] = system: MCF-7, CFPAC-1, HT-29, HepG2 tumor cell lines and HFF-1 fibroblasts; experiment: Antiproliferative activity, whole cell line panel; assay type: cell-based, human; conditions: tested cell lines
Protocol: The human ATCC tumor cell lines breast adenocarcinoma (MCF7), colorectal carcinoma (HT-29), pancreatic ductal adenocarcinoma (CFPAC-1), hepatocellular carcinoma (HepG2), and normal skin fibroblasts (HFF) derived from ATCC (American Type Culture Collection) were cultured in Dulbecco’s Modified Eagle Medium (DMEM) or Minimum Essential Medium (MEM) supplemented with 10% fetal bovine serum (FBS), 2 mM L-glutamine, 100 U/mL penicillin, and 100 µg/mL streptomycin (Lonza, Basel, Switzerland) in a humidified atmosphere with 5% CO2 at 37 °C. For the experiment, carcinoma cell lines and normal human cell lines were seeded in 96-well microtiter plates at a density of 3000 cells per well and 5000 cells per well, respectively, depending on the doubling time of the specific cell line. The test substances were then added at fivefold, tenfold dilutions (0.01 to 100 µM), freshly prepared in the growth medium on the day of testing, and incubated for a further 72 h. After 72 h of incubation, the growth rate of the cells was determined using the MTT assay according to the manufacturer’s guidelines. […] The IC50 values were calculated from the dose–response curves using linear regression analysis. The experiment was performed in tetraplicates in two individual experiments.
Newly synthesized compounds were evaluated for their cytotoxic activity in vitro against four human cancer cell lines, including human breast adenocarcinoma (MCF-7), ductal pancreatic adenocarcinoma (CFPAC-1), colorectal carcinoma (HT-29), and hepatocellular carcinoma (HepG2), as well as on non-cancerous skin fibroblasts (HFF-1), to check for non-specific toxicity. Furthermore, 5-Fluorouracil (5-FU) was used as a reference drug. The results are expressed as 50% inhibitory concentration (IC50) values and are listed in Table 2, Table 3, Table 4 and Table 5.

[3] = system: hepatocellular carcinoma (HepG2) cells; experiment: Antiproliferative MTT assay, HepG2; assay type: cell-based, human; conditions: for IC50: Homo sapiens, HepG2, 72 h, 72 h incubation, MTT, mean ± SD; for SI (HepG2): SI = [IC50 HFF]/[IC50 HepG2]
Summary of the method: as §1

[4] = system: breast adenocarcinoma (MCF7) cells; experiment: Antiproliferative MTT assay, MCF-7; assay type: cell-based, human; conditions: for IC50: Homo sapiens, MCF7, 72 h incubation, MTT, mean ± SD; for SI (MCF-7): SI = [IC50 HFF]/[IC50 MCF-7]
Summary of the method: as §1

[5] = system: colorectal carcinoma (HT-29) cells; experiment: Antiproliferative MTT assay, HT-29; assay type: cell-based, human; conditions: for IC50: Homo sapiens, HT-29, 72 h, 72 h incubation, MTT, mean ± SD; for SI (HT-29): SI = [IC50 HFF]/[IC50 HT-29]
Summary of the method: as §1

[6] = system: pancreatic ductal adenocarcinoma (CFPAC-1) cells; experiment: Antiproliferative MTT assay, CFPAC-1; assay type: cell-based, human; conditions: for IC50: Homo sapiens, CFPAC-1, 72 h, 72 h incubation, MTT, mean ± SD; for SI (CFPAC-1): SI = [IC50 HFF]/[IC50 CFPAC-1]
Summary of the method: as §1

[7] = system: P-glycoprotein (human MDR1); experiment: MDCKII-MDR1 permeability assay; assay type: in vitro ADME, canine cells with over-expressed human MDR1 gene; conditions: dog, MDCK-MDR1; for Papp A→B at 60 min, 10 µM / Papp B→A at 60 min, 10 µM: 37 °C; for efflux ratio at 60 min, 10 µM: <2 no efflux, >2 active efflux
Protocol: (§2) MDCKII-hMDR1 cells were obtained from Solvo Biotechnology, Hungary. DMEM, fetal bovine serum, Glutamax-100, Antibiotic/Antimycotic, DMSO, Dulbecco’s phosphate-buffered saline, and MEM Non-essential amino acids were purchased from Sigma (St. Louis, MO, USA). Bi-directional permeability and P-glycoprotein substrate assessments were carried out in Madin-Darby canine epithelial cells with the over-expressed human MDR1 gene (MDCKII-MDR1), coding for P-glycoprotein. Experimental procedures, as well as cell culture conditions, were the same as previously described. Briefly, compounds (10 µM, 1% DMSO v/v) in duplicate were incubated at 37 °C for 60 min with cell monolayer on 24-well Millicell inserts (Millipore, Burlington, MA, USA) with and without the P-glycoprotein inhibitor Elacridar (2 µM, International Laboratory, San Francisco, CA, USA). The inhibition of P-glycoprotein was verified by amprenavir (Moravek Biochemicals Inc, Brea, CA, USA) and monolayer integrity using Lucifer yellow (Sigma, St. Louis, MO, USA). LC-MS/MS measured compound concentrations and Lucifer yellow was measured on an Infinite F500 (Tecan, Männedorf, CH, Switzerland) using excitation of 485 nm and emission of 530 nm.
(§3) All samples were quantified using tandem mass spectrometry coupled to liquid chromatography. Samples were analyzed on a Sciex API4000 Triple Quadrupole Mass Spectrometer (Sciex, Division of MDS Inc., Toronto, Canada) coupled to a Shimadzu Nexera X2 UHPLC frontend (Kyoto, Japan). Samples were injected onto a UHPLC column (HALO2 C18, 2.1 × 20 mm, 2 µm or Luna Omega 1.6 µm Polar C18 100A, 30 × 2.1 mm) and eluted with a gradient at 50 °C. The mobile phase was composed of acetonitrile/water mixture (9/1, with 0.1% formic acid) and 0.1% formic acid in deionized water. The flow rate was 0.7 mL/min under gradient conditions, leading to a total run time of 1.5–2 min. A positive ion mode with turbo spray, an ion source temperature of 550 °C, and a dwell time of 150 ms were utilized for mass spectrometric detection. Quantitation was performed using multiple reaction monitoring (MRM) at the specific transitions for each compound.

[8] = system: MDCKII-MDR1 cells (P-glycoprotein); experiment: MDCKII-MDR1 permeability assay; assay type: in vitro ADME, canine cells with over-expressed human MDR1 gene; conditions: permeability class
Protocol: as §2, §3

[9] = Metabolic stability in mouse liver microsomes; assay type: in vitro ADME; conditions: for Clearance Values (CL): predicted in vivo hepatic clearance from mouse liver microsome t1/2, 1 µM compound; for Clearance Class.: mouse liver microsomes
Source text: Mouse liver microsomes were obtained from Corning Life Sciences (Corning, NY, USA). DMSO, nicotinamide adenine dinucleotide phosphate (NADP), glucose-6-phosphate, glucose-6-phosphate dehydrogenase, magnesium chloride, propranolol, caffeine, diclofenac, and phosphate-buffered saline (PBS) were purchased from Sigma (St. Louis, MO, USA). Acetonitrile (ACN) and methanol (MeOH) were obtained from Merck (Darmstadt, Germany). Testosterone was purchased from Steraloids (Newport, RI, USA). Metabolic stability was assessed in mouse liver microsomes. Compounds (final concentration of 1 µM, 0.03% DMSO v/v) were incubated in duplicate in phosphate buffer (50 mM, pH 7.4) at 37 °C together with mouse liver microsomes in the absence and presence of the NADPH cofactor (0.5 mM nicotinamide adenine dinucleotide phosphate, 5 mM glucose-6-phosphate, 1.5 U/mL glucose-6-phosphate dehydrogenase, and 0.5 mM magnesium chloride). Incubation and sampling were performed on a Freedom EVO 200 (Tecan, Männedorf, CH, Switzerland) at […], 10, 20, 30, 45, and 60 min. The reaction was quenched using 3 volumes of a mixture of ACN/MeOH (2:1) containing internal standard (diclofenac), centrifuged, and the supernatants were analyzed using LC-MS/MS. The metabolic activity of the microsomes was verified via simultaneous analysis of several controls including testosterone, propranolol, and caffeine. The in vitro half-life (t1/2) was calculated using GraphPad Prism (v9.0 software) non-linear regression of % of parent compound remaining versus time. In vitro clearance, expressed as µL/min/mg, was estimated from the in vitro half-life (t1/2) and normalized for the protein amount in the incubation mixture, assuming 52.5 mg of protein per gram of liver and using constant values for mouse liver weight/body weight [87.5 g/kg] and mouse liver blood flow (LBF) [131 mL/min/kg].
as §3

SMILES	IC50 [1] [µM]	antiproliferative activity (in words) [2]	IC50 [3] [µM]	IC50 [4] [µM]	IC50 [5] [µM]	IC50 [6] [µM]	Papp A→B at 60 min, 10 µM [7] [×10⁻⁶ cm/s]	Papp B→A at 60 min, 10 µM [7] [×10⁻⁶ cm/s]	efflux ratio at 60 min, 10 µM [7]	Permeability [8]	Clearance Values (CL) [9] [%]	SI (MCF-7) [4]	SI (CFPAC-1) [6]	Clearance Class. [9]	SI (HepG2) [3]	SI (HT-29) [5]
OCC(c1ccccc1)n1cc(Cn2ccc3ccccc32)nn1 (stereo not drawn) [Compound 26a, 1-((1-(2-Hydroxy-1-phenylethyl)-1H-1,2,3-triazol-4-yl)methyl)-1H-indole]	> 100	deprived of any activity	> 100	> 100	> 100	> 100										
OC(Cn1cc(Cn2ccc3ccccc32)nn1)c1ccccc1 (stereo not drawn) [Compound 26b, 1-((1-(2-Hydroxy-2-phenylethyl)-1H-1,2,3-triazol-4-yl)methyl)-1H-indole]	> 100	deprived of any activity	> 100	> 100	> 100	> 100										
OCC(c1ccccc1)n1cc(Cn2cnc3ccccc32)nn1 (stereo not drawn) [Compound 31a, 1-((1-(2-Hydroxy-1-phenylethyl)-1H-1,2,3-triazol-4-yl)methyl)-1H-benzimidazole]	> 100	deprived of any activity	> 100	> 100	> 100	> 100										
OC(Cn1cc(Cn2cnc3ccccc32)nn1)c1ccccc1 (stereo not drawn) [Compound 31b, 1-((1-(2-Hydroxy-2-phenylethyl)-1H-1,2,3-triazol-4-yl)methyl)-1H-benzimidazole]	> 100	deprived of any activity	> 100	91 ± 7.2	> 100	> 100										
OC(Cn1cc(Cn2ccc3c(Cl)ncnc32)nn1)c1ccc(Br)cc1 (stereo not drawn) [Compound 44b, 4-Chloro-7-((1-(2-hydroxy-2-(4-bromophenyl)ethyl)-1H-1,2,3-triazol-4-yl)methyl)-7H-pyrrolo[2,3-d]pyrimidine]	27 ± 11.9		32 ± 3.2	25 ± 6.4	30 ± 0.7	15 ± 0.2	25.3	62.7	2.5	highest permeability and HIGH	84	1.1	1.8			
OC(Cn1cc(Cn2ccc3c(Cl)ncnc32)nn1)c1ccc(C(F)(F)F)cc1 (stereo not drawn) [Compound 45b, 4-Chloro-7-((1-(2-hydroxy-2-(4-(trifluoromethyl)phenyl)ethyl)-1H-1,2,3-triazol-4-yl)methyl)-7H-pyrrolo[2,3-d]pyrimidine]	12 ± 3.1		32 ± 16.1	21 ± 1.6	19 ± 7.5	13 ± 2.2	26.5	90.7	3.4	highest permeability and HIGH	90	0.6	0.9			
O[C@@H](Cn1cc(Cn2cnc3c(Cl)ncnc32)nn1)c1ccc(C(F)(F)F)cc1 [Compound (R)-40b, (R)-6-Chloro-9-((1-(2-hydroxy-2-(4-(trifluoromethyl)phenyl)ethyl)-1H-1,2,3-triazol-4-yl)methyl)-9H-purine]	6 ± 4.8		8 ± 0.6	36 ± 23.1	6 ± 0.6	16 ± 2.6	2.2	45.2	21	MODERATE				LOW (<30% low)	0.7	1.0
O[C@H](Cn1cc(Cn2cnc3c(Cl)ncnc32)nn1)c1ccc(C(F)(F)F)cc1 [Compound (S)-40b, (S)-6-Chloro-9-((1-(2-hydroxy-2-(4-(trifluoromethyl)phenyl)ethyl)-1H-1,2,3-triazol-4-yl)methyl)-9H-purine]	12 ± 3.4		7 ± 1.5	10 ± 0.4	5 ± 0.1	19 ± 2.4	2.2	42.9	19.5	MODERATE				LOW (<30% low)	1.7	2.4
